Values of other authors, collected in patent EP4659594A1, “ORAL PRODUCTS CONTAINING MODIFIED NICOTINE-POLYMER COMPLEX” (Nicoventures Trading Limited, priority 2024, dated 2025).

Conditions: octanol/water; source of the values not stated
In the case of isopropyl benzoic acid, the logP is given as 3.5. For CCCCCCCS(=O)(=O)O [1-heptanesulfonic acid], the logP is given as 2.0. In the case of CC(C)[C@@H]1CC[C@@H](C)C[C@H]1OC(=O)CCC(=O)O [monomenthyl succinate], the logP is listed as 3. In the case of ethyl benzoic acid, the logP is given as 2.9. For CCCCCCCCCCCC(=O)O [dodecanoic acid], the logP is given as 4.6.
